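Briefly, cells in 96-well plates were exposed to five compound concentrations for 48 h, and endpoints were estimated by linear interpolation. GI50 marks 50% less growth. TGI is the concentration that stops growth completely.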
What was measured:
Test in all cases: inhibition of tumour cell growth, NCI panel, 48 h
[1] = test system: 786-0 renal
[2] = test system: A498 renal
[3] = test system: A549 NSCLC
[4] = test system: ACHN renal
[5] = test system: BT-549 breast
[6] = test system: CAKI-1 renal
[7] = test system: CCRF-CEM leukemia
[8] = test system: COLO 205 colon
[9] = test system: DU-145 prostate
[10] = test system: EKVX NSCLC
[11] = test system: HCT-116 colon
[12] = test system: HCT-15 colon
[13] = test system: HL-60(TB) leukemia
[14] = test system: HOP-62 NSCLC
[15] = test system: HOP-92 NSCLC
[16] = test system: HS 578T breast
[17] = test system: HT29 colon
[18] = test system: IGROV1 ovarian
[19] = test system: K-562 leukemia
[20] = test system: KM12 colon
[21] = test system: LOX IMVI melanoma
[22] = test system: M14 melanoma
[23] = test system: MALME-3M melanoma
[24] = test system: MCF7 breast
[25] = test system: MDA-MB-231 breast
[26] = test system: MDA-MB-435
[27] = test system: MOLT-4 leukemia
[28] = test system: NCI-H226 lung
[29] = test system: NCI-H23 lung
[30] = test system: NCI-H460 lung
[31] = test system: NCI-H522 lung
[32] = test system: NCI/ADR-RES ovarian
[33] = test system: OVCAR-3 ovarian
[34] = test system: OVCAR-4 ovarian
[35] = test system: OVCAR-5 ovarian
[36] = test system: OVCAR-8 ovarian
[37] = test system: PC-3 prostate
[38] = test system: RPMI-8226 leukemia
[39] = test system: RXF 393 renal
[40] = test system: SF-268 CNS
[41] = test system: SF-295 CNS
[42] = test system: SF-539 CNS
[43] = test system: SK-MEL-2 melanoma
[44] = test system: SK-MEL-28 melanoma
[45] = test system: SK-MEL-5 melanoma
[46] = test system: SK-OV-3 ovarian
[47] = test system: SN12C renal
[48] = test system: SNB-19 CNS
[49] = test system: SNB-75 CNS
[50] = test system: SR leukemia
[51] = test system: SW-620 colon
[52] = test system: T-47D breast
[53] = test system: TK-10 renal
[54] = test system: U251 CNS
[55] = test system: UACC-257 melanoma
[56] = test system: UACC-62 melanoma
[57] = test system: UO-31 renal
[58] = test system: HCC-2998 colon

CC1(C)CC[C@]2(C(=O)O)CC[C@]3(C)[C@H](C(=O)C=C4[C@@]5(C)C=C(C#N)C(=O)C(C)(C)[C@@H]5CC[C@]43C)[C@@H]2C1
TGI [1]: 3.39 µM | TGI [2]: 0.977 µM | TGI [3]: 5.86 µM | TGI [4]: 4.47 µM | TGI [5]: 4.11 µM | TGI [6]: 3.46 µM | TGI [7]: > 100 µM | TGI [8]: 1.49 µM | TGI [9]: 2.39 µM | TGI [10]: 9.68 µM | TGI [11]: 4.76 µM | TGI [12]: 1.7 µM | TGI [13]: 11.4 µM | TGI [14]: 3.28 µM | TGI [15]: 8.16 µM | TGI [16]: 10.4 µM | TGI [17]: 6.43 µM | TGI [18]: 7.15 µM | TGI [19]: 27.1 µM | TGI [20]: 1.61 µM | TGI [21]: 1.1 µM | TGI [22]: 4.32 µM | TGI [23]: 1.55 µM | TGI [24]: 5.14 µM | TGI [25]: 7.34 µM | TGI [26]: 3 µM | TGI [27]: 13.9 µM | TGI [28]: 4.02 µM | TGI [29]: 0.628 µM | TGI [30]: 22.2 µM | TGI [31]: 5.48 µM | TGI [32]: 4.68 µM | TGI [33]: 0.785 µM | TGI [34]: 23.2 µM | TGI [35]: 2.12 µM | TGI [36]: 2.42 µM | TGI [37]: 1.97 µM | TGI [38]: 1.19 µM | TGI [39]: 1.5 µM | TGI [40]: 7.78 µM | TGI [41]: 1.97 µM | TGI [42]: 4.05 µM | TGI [43]: 3.88 µM | TGI [44]: 2.35 µM | TGI [45]: 1.69 µM | TGI [46]: 14.8 µM | TGI [47]: 2.97 µM | TGI [48]: 3.64 µM | TGI [49]: 2.84 µM | TGI [50]: 2.06 µM | TGI [51]: 2.42 µM | TGI [52]: 4.34 µM | TGI [53]: 2.02 µM | TGI [54]: 3.01 µM | TGI [55]: 2.84 µM | TGI [56]: 4.43 µM | TGI [57]: 6.29 µM

Cc1cc(C)c(C#N)c(Sc2nc(C)c([N+](=O)[O-])c(C)c2C#N)n1
GI50 [1]: 5.04 µM | TGI [1]: 17.9 µM | GI50 [2]: 13.1 µM | TGI [2]: 27 µM | GI50 [4]: 1.75 µM | TGI [4]: 3.38 µM | GI50 [5]: 2.66 µM | TGI [5]: 7.5 µM | GI50 [6]: 2.17 µM | TGI [6]: 5.65 µM | GI50 [8]: 2.58 µM | TGI [8]: 5.55 µM | GI50 [9]: 2.95 µM | TGI [9]: 11.1 µM | GI50 [58]: 4.66 µM | TGI [58]: 15.8 µM | GI50 [11]: 1.94 µM | TGI [11]: 4.18 µM | GI50 [12]: 2.32 µM | TGI [12]: 6.25 µM | GI50 [13]: 2.63 µM | TGI [13]: 7.34 µM | GI50 [14]: 3.52 µM | TGI [14]: 12.7 µM | GI50 [15]: 2.68 µM | TGI [15]: 7.88 µM | GI50 [16]: 2.44 µM | TGI [16]: 8.51 µM | GI50 [17]: 3.71 µM | TGI [17]: 10.8 µM | GI50 [18]: 3.3 µM | TGI [18]: 12.3 µM | GI50 [19]: 2.9 µM | TGI [19]: > 100 µM | GI50 [20]: 3.98 µM | TGI [20]: 19 µM | GI50 [21]: 1.82 µM | TGI [21]: 3.44 µM | GI50 [22]: 3.07 µM | TGI [22]: 10.4 µM | GI50 [23]: 2.27 µM | TGI [23]: 5.1 µM | GI50 [24]: 3.11 µM | TGI [24]: 11.6 µM | GI50 [25]: 4.7 µM | TGI [25]: 51 µM | GI50 [26]: 2.1 µM | TGI [26]: 4.75 µM | GI50 [27]: 3.03 µM | TGI [27]: > 100 µM | GI50 [28]: 2.99 µM | TGI [28]: 10.5 µM | GI50 [29]: 2.87 µM | TGI [29]: 10.4 µM | GI50 [30]: 3.63 µM | TGI [30]: 16.2 µM | GI50 [32]: 4.01 µM | TGI [32]: 33.1 µM | GI50 [33]: 2.01 µM | TGI [33]: 3.88 µM | GI50 [34]: 2.27 µM | TGI [34]: 6.64 µM | GI50 [35]: 4.03 µM | TGI [35]: 41.1 µM | GI50 [36]: 3.03 µM | TGI [36]: 10.5 µM | GI50 [37]: 4.67 µM | TGI [37]: 61.2 µM | GI50 [38]: 2.84 µM | TGI [38]: 8.16 µM | GI50 [39]: 2.16 µM | TGI [39]: 5.55 µM | GI50 [40]: 3.26 µM | TGI [40]: 11.8 µM | GI50 [41]: 14.2 µM | TGI [41]: 59.4 µM | GI50 [42]: 2.43 µM | TGI [42]: 6 µM | GI50 [43]: 2.21 µM | TGI [43]: 5.86 µM | GI50 [44]: 3.12 µM | TGI [44]: 12.4 µM | GI50 [45]: 4.02 µM | TGI [45]: 16.4 µM | GI50 [46]: 3.76 µM | TGI [46]: 27.4 µM | GI50 [47]: 2.26 µM | TGI [47]: 5.67 µM | GI50 [48]: 15.1 µM | TGI [48]: 88 µM | GI50 [49]: 3.29 µM | TGI [49]: 21.8 µM | GI50 [50]: 2.94 µM | TGI [50]: > 100 µM | GI50 [51]: 2.07 µM | TGI [51]: 4.65 µM | GI50 [52]: 2.29 µM | TGI [52]: 5.59 µM | GI50 [53]: 3.27 µM | TGI [53]: 8.28 µM | GI50 [54]: 3.1 µM | TGI [54]: 10.8 µM | GI50 [56]: 2.96 µM | TGI [56]: 11.5 µM | GI50 [57]: 1.81 µM | TGI [57]: 4.01 µM

From PubChem BioAssay (NCI)
